Reference: US8911805B2, “Calcium preparation and method of production thereof” (Toyo Suisan Kaisha, Ltd., priority 2010, dated 2014)

System: bone loss in low-Ca fed rats
Assay: Oral study of solid preparation of calcium in rats (dry weight of tibia)
Assay type: in vivo, Crl:CD (SD) rats
Details: compared to the low calcium fed group; feed Ca content 0.5%, three weeks
Method: A test for the improvement, effect of the solid preparation or calcium of the present invention on bone loss in low-Ca fed rats was performed using 5-week-old male Crl:CD (SD) rats. AIN-93M was administered to 4-week old rats. After habituation for one week, various kinds of feeds were administered to the rats for three weeks. As a basic feed, a feed obtained by modifying the content of calcium in AIN-93M to 0.2% (normal feed: 0.5%) was used.
The test groups included the following six groups (one group: eight rats): a low calcium fed group to which a basic feed was administered; a group to which a basic feed containing calcium carbonate at a Ca content of 0.5% was administered; a group to which a basic feed containing freeze-dried powder of a C100P100Ca200K225 solution after aging (at 37° C. for two days) at a Ca content of 0.5% was administered; a group to which a basic feed containing freeze-dried powder of a C200P100Ca200K550 solution after aging (at 37° C. for one day) a Ca content of 0.5% was administered; a group to which a basic feed containing freeze-dried powder of a C100P100Ca200K225 solution before aging at a Ca content of 0.5% was administered; and a group to which basic feed containing calcium lactate at a Ca content of 0.5% was administered.
After three weeks, the dry weight of the extracted tibia was measured. […]

O=C([O-])[O-].[Ca+2] [calcium carbonate]
bone weight (dry weight of the extracted tibia): significantly increased

CC(O)C(=O)[O-].CC(O)C(=O)[O-].[Ca+2] (centres unmarked) [calcium lactate]
bone weight (dry weight of the extracted tibia): significantly increased
